Assays:
Format in all cases: cell-based, human
PLB-985 cells = experiment: PtdSer exposure (Cy5-Annexin V staining) of DAC-treated PLB-985 cells after UV irradiation; conditions: PLB-985 cells treated with DAC for five days, Cy5-Annexin V and PI
Procedure: Apoptosis was induced by treating cells with FasL or staurosporine, or exposing them to UV. In brief, 5×10^5 cells in 500 μl of culture medium were incubated at 37° C. with 10-400 units/ml hFasL for 1.2-2.0 h or with 10 μM staurosporine for 1.5-4.0 h. For UV exposure, 1×10^6 cells in 2 ml of PBS were exposed to 500-2000 J/m UV radiation (254 nm) in a StrataLinker UV oven (Stratagene), and incubated at 37° C. for 1.5-2.0 h in 4 ml of RPMI1640 containing 10% FCS. To monitor Ca^2÷-ionophore-induced PtdSer exposure, cells (5×10^5 cells) in 500 μl of Annexin V staining buffer (10 mM Hepes-NaOH buffer [pH7.4] containing 140 mM NaCl and 2.5 mM CaCl2) were incubated at 20° C. for 3 min, treated with 3.0-10 μM A23187, and analyzed with FACSAria at 20° C.
To detect PtdSer and PtdEtn exposed on the cell surface, cells were stained on ice for 15 min with 2500-5000-fold diluted Cy5-Annexin V (Biovision) or 800-fold diluted-biotin-Ro09-0198^66 followed by 1.0 μg/ml APC-streptavidin in Annexin V staining buffer in the presence of 5 μg/ml propidium iodide (PI), and analyzed by FACSAria or FACSCalibur (BD Biosciences). […] Aliquots (150 μl) were mixed with 150 μl HBSS containing 5 μg/ml fatty-acid free BSA (Sigma-Aldrich) and 500 nM Sytoxblue (Molecular Probes), and analyzed by FACSAria. […]

[1] = system: Xkr8 mRNA in PLB-985 cells; experiment: Real-time RT-PCR of Xkr8 mRNA in DAC-treated PLB-985 cells
Procedure: To treat human PLB-985 cells with 5-aza-2′-deoxycytidine (DAC, Sigma-Aldrich), 1.0×10^6 cells in 10 ml of RPMI containing 10% FCS were incubated with 0.5 μM DAC for up to 7 days. Since DAC is an unstable compound, the medium containing DAC was changed every 24 hours. After DAC treatment, the cells were divided into three portions: one portion for FACS to analyze the PtdSer exposure, one for real-time RT-PCR for Xkr8 gene expression, and one for the methylation-specific PCR analysis^67. For the bisulfite genomic sequencing, the DNA was modified with bisulfite using a kit (MethyEasy Xceed, Human Genetic Signatures). In brief, 3 μg DNA was denatured by incubation at 37° C. for 15 min in 0.3 M NaOH, and treated with sodium bisulfite according to the protocol provided by the supplier except that the incubation time was changed to 90 min. The modified DNA was denatured at 95° C. for 20 min, and amplified by PCR using primers specific for the treated DNA ([…] (SEQ ID NO; 20) and […] (SEQ ID NO; 21)). PCR was carried out with EpiTaq HS polymerase (Takara Bio) for 7-40 cycles, and the product was cloned in a pGEM-Teasy vector for sequencing. […]
The specific mRNA was quantified at the point where the LightCycler System detected the upstroke of the exponential phase of PCR accumulation with the respective linearized plasmid DNA as reference.

[2] = system: CpG sites of the hXkr8 gene promoter in PLB-985 cells; experiment: Bisulfite genomic sequencing of CpG sites between -239 and +7 of the hXkr8 gene; conditions: 0.5 μM DAC, day 7
Procedure: To treat human PLB-985 cells with 5-aza-2′-deoxycytidine (DAC, Sigma-Aldrich), 1.0×10^6 cells in 10 ml of RPMI containing 10% FCS were incubated with 0.5 μM DAC for up to 7 days. Since DAC is an unstable compound, the medium containing DAC was changed every 24 hours. After DAC treatment, the cells were divided into three portions: one portion for FACS to analyze the PtdSer exposure, one for real-time RT-PCR for Xkr8 gene expression, and one for the methylation-specific PCR analysis^67. For the bisulfite genomic sequencing, the DNA was modified with bisulfite using a kit (MethyEasy Xceed, Human Genetic Signatures). In brief, 3 μg DNA was denatured by incubation at 37° C. for 15 min in 0.3 M NaOH, and treated with sodium bisulfite according to the protocol provided by the supplier except that the incubation time was changed to 90 min. The modified DNA was denatured at 95° C. for 20 min, and amplified by PCR using primers specific for the treated DNA ([…] (SEQ ID NO; 20) and […] (SEQ ID NO; 21)). PCR was carried out with EpiTaq HS polymerase (Takara Bio) for 7-40 cycles, and the product was cloned in a pGEM-Teasy vector for sequencing.

SMILES: Nc1ncn([C@H]2C[C@H](O)[C@@H](CO)O2)c(=O)n1 [DAC, 5-aza-2′-deoxycytidine]
- PtdSer exposure in response to UV irradiation (PLB-985 cells): gained the ability to expose PtdSer
- Change of Xkr8 mRNA level ([1]; 0.5 μM DAC for up to 7 days): gradually increased
- Xkr8 mRNA level relative to that in Namalwa cells ([1]; 0.5 μM DAC, day 7): about 91%
- Methylation status of the 23 CpG sites between -239 and +7 [2]: highly demethylated

From patent US9857357B2, “Method of screening modulator of XKR8” (KYOTO UNIVERSITY, priority 2012, dated 2018)
